The conditions of series [1]: animal models (Merino et al., Biopharm. Drug. Disp. 1989); cited from earlier work.
The nature of series [2]: pH-Dependent Stability of prodrugs in aqueous buffers. Format: physicochemical. The conditions noted are these: pH 2 to pH 8, 37° C. The method, then:
(§1) The stabilities of prodrugs were evaluated in one or more in vitro systems using a variety of tissue preparations following methods known in the art. The chemical stability of prodrugs in aqueous buffers at a pH of 2.0, 7.4, and 8.0 were also measured. Tissues were obtained from commercial sources (e.g., Pel-Freez Biologicals, Rogers, Ark., or GenTest Corporation, Woburn, Mass.). Experimental conditions used for the in vitro studies are described in Table 1. Each preparation was incubated with test compound at 37° C. for one hour. Aliquots (50 μL) were removed at 0, 30, and 60 min and quenched with 0.1% trifluoroacetic acid in acetonitrile. Samples were then centrifuged and analyzed by LC/MS/MS. Stability of prodrugs towards specific enzymes (e.g., peptidases, etc.) was also assessed in vitro by incubation with the purified enzyme.
pH-Dependent Stability: The long-term pH-dependent stability of tranexamic acid prodrug at 37° C. was measured by LC/MS/MS at five different representative pH values from pH 2.0 to pH 8.0 was determined. The test concentration was 5 μM. The amount of remaining prodrug and the amount of tranexamic acid released from the prodrug was determined at 0 hour and after 24 hours.

Series [3] can be described thus: Enzymatic cleavage of prodrugs in vitro (tissue preparations of Table 1). Format: in vitro ADME. The conditions noted are these: in the presence of the tissue preparations, 37° C. The method, then: as §1
Pancreatin Stability: Stability studies were conducted by incubating prodrug (5 μM) with 1% (w/v) pancreatin (Sigma, P-1625, from porcine pancreas) in 0.025 M Tris buffer containing 0.5 M NaCl (pH 7.5) at 37° C. for 60 min. The reaction was stopped by addition of 2 volumes of methanol. After centrifugation at 14,000 rpm for 10 min, the supernatant was removed and analyzed by LC/MS/MS.
Caco-2 Homogenate S9 Stability: Caco-2 cells were grown for 21 days prior to harvesting. Culture medium was removed and cell monolayers were rinsed and scraped off into ice-cold 10 mM sodium phosphate/0.15 M potassium chloride, pH 7.4. Cells were lysed by sonication at 4° C. using a probe sonicator. Lysed cells were then transferred into 1.5 mL centrifuge vials and centrifuged at 9,000 g for 20 min at 4° C. The resulting supernatant (Caco-2 cell homogenate S9 fraction) was aliquoted into 0.5 mL vials and stored at −80° C. until used.
For stability studies, prodrug (5 μM) was incubated in Caco-2 homogenate S9 fraction (0.5 mg protein per mL) for 60 min at 37° C. Concentrations of intact prodrug and released tranexamic acid were determined at zero time and 60 min using LC/MS/MS.

Molecules are shown by their SMILES.

Turning to `NCC(CC(=O)O)c1ccc(Cl)cc1` (racemic) [Baclofen, (±)-4-Amino-3-(4-chlorophenyl)butanoic acid], the “absorption following administration into the colon” value in series [1] was “poorly absorbed”. As for `CCCCP(=O)(O)CCCNC(=O)OC(OC(=O)C(C)C)C(C)C` (centres unmarked) [39/40, 3-{[1-isobutanoyloxyisobutoxy]carbonylamino}propyl(n-butyl)phosphinic acid], the “stability from pH 2 to pH 8” value in series [2] is “good stability”. Moreover, the “hydrolysis to release the corresponding 3-aminopropylphosphinic acid analog” value in series [3] is reported as “hydrolyzed to release the corresponding 3-aminopropylphosphinic acid analogs”. The like results for `CCCCP(=O)(O)CCCNC(=O)OC(C)OC(=O)C(C)C` (centres unmarked) [Compound 31, 3-{[1-Isobutanoyloxyethoxy]carbonylamino}propyl(n-butyl)phosphinic Acid] were, in that order, “good stability” and “hydrolyzed to release the corresponding 3-aminopropylphosphinic acid analogs”. The matching figures for `CCCCP(=O)(O)CCCNC(=O)OCOC(=O)C(C)C` [Compound 35, 3-{[Isobutanoyloxymethoxy]carbonylamino}propyl(n-butyl)phosphinic Acid]: “good stability” and “hydrolyzed to release the corresponding 3-aminopropylphosphinic acid analogs”. The matching figures for `CCCCP(=O)(O)CCCNC(=O)OC(C)OC(=O)c1ccccc1` (centres unmarked) [Compound 211, 3-{[1-Benzoyloxyethoxy]carbonylamino}propyl(n-butyl)phosphinic Acid]: “good stability” and “hydrolyzed to release the corresponding 3-aminopropylphosphinic acid analogs”.

As for `CCCCP(=O)(O)CCCNC(=O)OCOC(=O)c1ccccc1` [Compound 212, 3-{[1-Benzoyloxymethoxy]carbonylamino}propyl(n-butyl)phosphinic Acid], in series [2], the “stability from pH 2 to pH 8” value is reported as “good stability”. The “hydrolysis to release the corresponding 3-aminopropylphosphinic acid analog” value in series [3] is “hydrolyzed to release the corresponding 3-aminopropylphosphinic acid analogs”.

These data come from patent US7749985B2, “Acyloxyalkyl carbamate prodrugs, methods of synthesis and use” (XenoPort, Inc., priority 2006, dated 2010).
